Experimental data from the supplement of paper PMC3974653.
Counter-ions that a name gives are not always drawn.

System: MTT (mouse pheochromocytoma)
Experiment: IC50 of cell viability (ATP content)
Settings: (24 or 48 h)
How it was run: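 MTT mouse pheochromocytoma cells were seeded into white 1536-well plates at 5 µl per well from a 200,000 cells/ml suspension in DMEM with 5% FBS and 1% horse serum, then cultured overnight at 37°C, 5% CO2. A pintool added 23 nl of library compound in DMSO at 8 concentrations (final 0.5 nM to 46 µM) for 24 or 48 hrs, and CellTiter-Glo ATP luminescence was read after 15 minutes. Signals were scaled so that positive-control wells equalled 100% and DMSO wells 0%. IC50 values were derived by fitting a four-parameter logistic curve.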

Row | Compound | IC50 of cell viability [µM]
1 | O=C(CC1NCCC[C@H]1O)Cn1cnc2cc(Br)c(Cl)cc2c1=O (some centres not stated) [HALOFUGINONE LACTATE] | > 46
2 | O=C(CCCN1CCC(O)(c2ccc(Cl)cc2)CC1)c1ccc(F)cc1 [HALOPERIDOL] | > 46
3 | CC1(C)SC2C(N3C(=O)C(c4ccccc4)NC3(C)C)C(=O)N2C1C(=O)[O-].[K+] (configuration not stated) [HETACILLIN POTASSIUM] | > 46
4 | CN1C(=O)NC(=O)C(C)(C2=CCCCC2)C1=O (configuration not stated) [HEXOBARBITAL] | > 46
5 | NCCc1c[nH]cn1 [HISTAMINE] | > 46
6 | CN(C)CCc1ccc(O)cc1 [HORDENINE] | > 46
7 | CC(=O)N[C@@H]1C(O[C@H]2O[C@H](C(=O)O)C(O)[C@H](O)[C@H]2O)[C@H](O)[C@@H](CO)O[C@H]1O[C@@H]1C(C(=O)O)O[C@@H](O[C@H]2[C@H](O)[C@@H](CO)OC(O)[C@@H]2NC(C)=O)[C@H](O)[C@H]1O (some centres not stated) [HYALURONATE SODIUM] | > 46
8 | N[S+](=O)([O-])c1cc2c(cc1Cl)NCN[S+]2(=O)[O-] [HYDROCHLOROTHIAZIDE] | > 46
9 | COc1ccc2c3c1O[C@H]1C(=O)CC[C@H]4[C@@H](C2)N(C)CC[C@]314 [HYDROCODONE BITARTRATE] | > 46
10 | C[C@]12CCC(=O)C=C1CC[C@@H]1[C@@H]2[C@@H](O)C[C@@]2(C)[C@H]1CC[C@]2(O)C(=O)COP(=O)([O-])[O-] [HYDROCORTISONE SODIUM PHOSPHATE] | > 46
11 | C[C@]\12CCC(=O)\C=C1CC[C@H]3[C@@H]4CC[C@](O)(C(=O)CO)[C@@]4(C)C[C@H](O)[C@H]23 [HYDROCORTISONE] | > 46
12 | Br.CC(N)Cc1ccc(O)cc1 (configuration not stated) [HYDROXYAMPHETAMINE HYDROBROMIDE] | > 46
13 | N=C(N)c1ccc(/C=C/c2ccc(C(=N)N)cc2O)cc1 [HYDROXYSTILBAMIDINE ISETHIONATE] | > 46
14 | Nc1c2c(nc3ccccc13)CCCC2O (configuration not stated) [HYDROXYTACRINE] | > 46
15 | Cc1cccc(C(=O)O)c1O [HYDROXYTOLUIC ACID] | > 46
16 | NC(=O)NO [HYDROXYUREA] | > 46
17 | CNC1CC(N)[C@H](O)[C@@H](O[C@@H]2OC(CO)C3OC4(OC(C(N)CO)C(O)C(O)C4O)O[C@@H]3[C@H]2O)C1O (some centres not stated) [HYGROMYCIN B] | > 46

Row | Compound | IC50 of cell viability [µM]
18 | O=C1N\C=N/C2=C1[NH]C=N2 [HYPOXANTHINE] | > 46
19 | CC1(C)O[C@H]2C[C@@H]3[C@H]4CC\C5=C\C(=O)CC[C@@]5(C)[C@]4(F)[C@@H](O)C[C@]3(C)[C@]2(O1)C(=O)CCl [Halcinonide] | > 46
20 | C[C@@H]1CC2[C@@H]3C[C@H](F)C4=CC(=O)C(Cl)=C[C@]4(C)[C@@]3(F)[C@H](O)C[C@]2(C)[C@@]1(O)C(=O)CO (some centres not stated) [Halometasona] | > 46
21 | FC(F)(F)C(Cl)Br (configuration not stated) [Halothane] | > 46
22 | Cc1c(Cl)c(=O)oc2cc(OP(=O)(OCCCl)OCCCl)ccc12 [Haloxon] | > 46
23 | C[C@H]1CC[C@]2(OC1)O[C@@H]1C[C@@H]3[C@H]4CC[C@H]5C[C@@H](O)CC[C@]5(C)[C@@H]4CC(=O)[C@@]3(C)[C@H]1[C@@H]2C [Hecogenin] | > 46
24 | COc1ccc([C@@H]2CC(=O)c3c(O)cc(O[C@@H]4O[C@@H](CO[C@@H]5O[C@@H](C)[C@@H](O)[C@@H](O)[C@H]5O)[C@@H](O)[C@@H](O)[C@H]4O)cc3O2)cc1O [Hesperidin] | > 46
25 | CC[C@H](c1ccc(O)cc1)[C@@H](CC)c1ccc(O)cc1 [Hexestrol] | > 46
26 | CN1C(=O)NC(=O)C(C)(C2=CCCCC2)C1=O (configuration not stated) [Hexobarbital] | > 46
27 | C[N+]1(C)CCN(C[C@@](O)(c2ccccc2)C2CCCCC2)CC1 [Hexocyclium methosulfate] | > 46
28 | C[C@@H](CNC1CCCCC1)OC(=O)c1ccccc1 [Hexylcaine hydrochloride] | > 46
29 | CC(=O)[C@@]1(O)CC[C@H]2[C@@H]3CC\C4=C\C(=O)CC[C@]4(C)[C@H]3CC[C@]12C [Hidroxiprogesterona] | > 46
30 | NNc1nncc2ccccc12 [Hydralazine hydrochloride] | > 46
31 | C[C@]\12CCC(=O)\C=C1CC[C@H]3[C@@H]4CC[C@](O)(C(=O)COC(=O)CCC(O)=O)[C@@]4(C)C[C@H](O)[C@H]23 [Hydrocortisone 21-hemisuccinate sodium salt] | > 46
32 | CC(=O)OCC(=O)C1(O)CCC2C3CCC/4=C/C(=O)CCC4(C)C3C(O)CC12C (configuration not stated) [Hydrocortisone acetate] | > 46
33 | COc1c2c(cc3c1OCO3)CCN(C)C2 [Hydrocotarnine hydrobromide] | > 46

Further lines, results first:

Row | IC50 of cell viability [µM] | Compound
34 | > 46 | CCC(=O)O[C@]1(C(=O)CCl)[C@@H](C)CC2C3C[C@H](F)C4=CC(=O)C=CC4(C)[C@@]3(F)C(O)CC21C (some centres not stated) [HALOBETASOL PROPIONATE]
35 | > 46 | CC(N)CCCC(C)(C)O.Cl (configuration not stated) [HEPTAMINOL HYDROCHLORIDE]
36 | > 46 | C[N+](C)(C)CCCCCC[N+](C)(C)C [HEXAMETHONIUM]
37 | > 46 | CC(C)CCCC(C)CCCC(C)CCCCC(C)CCCC(C)CCCC(C)C (configuration not stated) [HEXAMETHYLTETRACOSANE]
38 | > 46 | Oc1ccc(C(O)CNCCCCCCNCC(O)c2ccc(O)c(O)c2)cc1O (configuration not stated) [HEXOPRENALINE SULFATE]
39 | > 46 | CCCCCCOC(=O)c1cccnc1 [HEXYL NICOTINATE]
40 | > 46 | CCCC(=O)O[C@@]1(CCC2[C@@H]3CCC/4=C/C(=O)CC[C@]4(C)C3C(O)C[C@@]12C)C(=O)CO (some centres not stated) [HYDROCORTISONE BUTYRATE]
41 | > 46 | CCCC(=O)O[C@]1(C(=O)COC(=O)CC)CC[C@@H]2[C@@H]3CCC4=CC(=O)CC[C@]4(C)[C@H]3[C@@H](O)C[C@@]21C [HYDROCORTISONE PROBUTATE]
42 | > 46 | CCCCC(=O)O[C@@]1(CCC2C3CC\C4=C\C(=O)CCC4(C)C3C(O)CC12C)C(=O)CO (some centres not stated) [HYDROCORTISONE VALERATE]
43 | > 46 | CCN(CCO)CCCC(C)Nc1ccnc2cc(Cl)ccc12 (configuration not stated) [HYDROXYCHLOROQUINE SULFATE]
44 | > 46 | CC(CC=O)CCCC(C)(C)O (configuration not stated) [HYDROXYCITRONELLAL]
45 | > 46 | CCCCN(CCCC)CC[C@H](O)c1cc2c(Cl)cc(Cl)cc2c2cc(C(F)(F)F)ccc12 [Halofantrine hydrochloride]
46 | > 46 | CCCCCCCCCCCCCCCCN [Hetaflur]
47 | > 46 | CCCCCCCCCCCCCCCC(=O)OC(C)C [Hexadecanoic acid, 1-methylethyl ester]
48 | > 46 | CCCCCCCCCCCCCCCC(=O)O [Hexadecanoic acid]
49 | > 46 | C[N+](C)(CCCCCC[N+](C)(C)C1c2ccccc2-c2ccccc21)C1c2ccccc2-c2ccccc21 [Hexafluorenium dibromide]
50 | > 46 | CCCCCC(N)=O [Hexanamide]
51 | > 46 | CCCC[C@H](CC)CN1CN(C[C@@H](CC)CCCC)CC(C)(N)C1 [Hexetidine]
52 | > 46 | CC1CC(OC(=O)c2ccccc2O)CC(C)(C)C1 (configuration not stated) [Homosalate]
